Measured values as given in patent US6242440A, “Synergistic compositions comprising an oxathiazine and a benzothiophene-2-carboxamide-S,S-dioxide” (Janssen Pharmaceutica N.V., priority 1997, dated 2001).

Columns and labels:
Aspergillus niger = test: poison plate assay, mycelial growth and sporulation; assay type: cell-based
Procedure: (§1) The efficacy of the active ingredients against mycelial growth and sporulation of Aureobasidium pullulans, Aspergillus niger, Scierophoma entoxylina, Trichodenna viride, was determined in the poison plate assay. The required concentrations of the fungicide(s) were obtained by diluting the active ingredients (I), (II) or the combination of (I) and (II) in dimethyl sulfoxide (DMSO) at 800 times the final test concentration. The stock solutions in DMSO were pipetted into Petri-dishes. Malt extract agar (3%) was added aseptically and uniform distribution was obtained by shaking. Each plate was spot inoculated with a spore or mycelial suspension. After incubation at 22° C. and 70% relative humidity for a period long enough to allow complete growth of controls, diameters of colonies were measured. Relative activities were calculated by taking the absence of fungal growth (diameter 0 mm) as 100%. From the activity of the active ingredients alone, the expected activities E were calculated by using the so-called formula of Colby: (Colby, S. R. Weeds 1967, 15: 20-22), [formula]
(§2) wherein X and Y express the relative activities obtained for each of the active ingredients. A synergistic effect can be acknowledged if the found activity exceeds calculated activity.
(§3) Equal efficacy was observed whenever complete inhibition of fungal growth occurred by one of the active ingredients (I) or (II) alone. The compound of formula (I) used in the experiment was 3-benzo[b]-thien-2-yl)-5,6-dihydro-1,4,2-oxathiazine 4-oxide, i.e. compound (1). The compound of formula (II) used in the experiment was N-cyclohexyl-benzothiophene-2-carboxamide-S,S-dioxide, i.e. compound (2).

Aureobasidium pullulans = test: as above; assay type: cell-based
Procedure: as §1, §2, §3

Sclerophoma entoxylina = test: as above; assay type: cell-based
Procedure: as §1, §2, §3

Trichoderma viride = test: as above; assay type: cell-based
Procedure: as §1, §2, §3

Aureobasidium = test: wood stick test (Scots Pine); assay type: cell-based, Aureobasidium pullulans; conditions: read-out: measured (relative) activity %
Procedure: (§4) Oven-dried wood sticks (50×12×2 mm) of Scots Pine (Pinus sylvestris) were dipped during 3 hours in a methanol solution comprising a compound of formula (I), a compound of formula (II), or a combination of a compound of formula (I) and a compound of formula (II), and allowed to dry overnight in a sterile laminar air flow. In each Petri dish one stick was placed on culture medium, PDA PS (Potato Dextrose Agar containing 60 mg penicillin and 200 mg streptomycin), previously seeded with inoculum. Two drops of fungal or spore suspension were pipetted on the upper surface of the stick The Petri dishes were incubated at 22° C. and 70% relative humidity. The test was evaluated after sufficient growth of the fungus on the control sticks. The following score system was used:
(§5) 0: sticks free of fungal growth
(§6) 1: traces of growth on the stick
(§7) 2: slight growth (5 to 25% of the surface covered)
(§8) 3 : moderate growth (25 to 50% of the surface covered)
(§9) 4: vigorous to maximum growth (more tha 50% covered)
(§10) To calculate synergism results were converted to the next artificial activities:
(§11) Yhe expected activities E were calculated by using the so-called formula of Colby: (Colby, S. R. Weeds 1967, 15: 20-22), [formula]
as §2
(§12) The compound of formula (I) used in the experiment was 3-benzo[b]-thien-2-yl)-5,6-dihydro-1,4,2-oxathiazine 4-oxide, i.e. compound (1). The compound of formula (II) used in the experiment was N-cyclohexyl-benzothiophene-2-carboxamide-S,S-dioxide, i.e. compound (2).

Aspergillus = test: wood stick test (Scots Pine); assay type: cell-based, Aspergillus niger
Procedure: as §4, §5, §6, §7, §8, §9, §10, §11, §2, §12

Sclerophoma = test: wood stick test (Scots Pine); assay type: cell-based, Sclerophoma entoxylina
Procedure: as §4, §5, §6, §7, §8, §9, §10, §11, §2, §12

O=C(NC1CCCCC1)C1=Cc2ccccc2S1(=O)=O [compound (2), N-cyclohexyl-benzothiophene-2-carboxamide-S,S-dioxide]
activity measured (Aspergillus niger; Exp 1, 5 days, (2) 2.5 mg/l): 0%
growth (Aspergillus niger; Exp 1, 5 days, (2) 2.5 mg/l): 44 mm
activity measured (Aspergillus niger; Exp 1, 5 days, (2) 5 mg/l): 5%
growth (Aspergillus niger; Exp 1, 5 days, (2) 5 mg/l): 42 mm
activity measured (Aspergillus niger; Exp 1, 5 days, (2) 10 mg/l): 23%
growth (Aspergillus niger; Exp 1, 5 days, (2) 10 mg/l): 34 mm
activity measured (Aspergillus niger; Exp 1, 5 days, (2) 20 mg/l): 70%
growth (Aspergillus niger; Exp 1, 5 days, (2) 20 mg/l): 13 mm
activity measured (Aspergillus niger; Exp 2, 7 days, (2) 2.5 mg/l): 2%
growth (Aspergillus niger; Exp 2, 7 days, (2) 2.5 mg/l): 44 mm
activity measured (Aspergillus niger; Exp 2, 7 days, (2) 5 mg/l): 2%
growth (Aspergillus niger; Exp 2, 7 days, (2) 5 mg/l): 44 mm
activity measured (Aspergillus niger; Exp 2, 7 days, (2) 10 mg/l): 9%
growth (Aspergillus niger; Exp 2, 7 days, (2) 10 mg/l): 41 mm
activity measured (Aspergillus niger; Exp 2, 7 days, (2) 20 mg/l): 36%
growth (Aspergillus niger; Exp 2, 7 days, (2) 20 mg/l): 29 mm
activity measured (Aureobasidium pullulans; Exp 1, 5 days, (2) 2.5 mg/l): 8%
growth (Aureobasidium pullulans; Exp 1, 5 days, (2) 2.5 mg/l): 35 mm
activity measured (Aureobasidium pullulans; Exp 1, 5 days, (2) 5 mg/l): 16%
growth (Aureobasidium pullulans; Exp 1, 5 days, (2) 5 mg/l): 32 mm
activity measured (Aureobasidium pullulans; Exp 1, 5 days, (2) 10 mg/l): 37%
growth (Aureobasidium pullulans; Exp 1, 5 days, (2) 10 mg/l): 24 mm
activity measured (Aureobasidium pullulans; Exp 1, 5 days, (2) 20 mg/l): 53%
growth (Aureobasidium pullulans; Exp 1, 5 days, (2) 20 mg/l): 18 mm
activity measured (Aureobasidium pullulans; Exp 2, 7 days, (2) 2.5 mg/l): 2%
growth (Aureobasidium pullulans; Exp 2, 7 days, (2) 2.5 mg/l): 47 mm
activity measured (Aureobasidium pullulans; Exp 2, 7 days, (2) 5 mg/l): 6%
growth (Aureobasidium pullulans; Exp 2, 7 days, (2) 5 mg/l): 45 mm
activity measured (Aureobasidium pullulans; Exp 2, 7 days, (2) 10 mg/l): 8%
growth (Aureobasidium pullulans; Exp 2, 7 days, (2) 10 mg/l): 44 mm
activity measured (Aureobasidium pullulans; Exp 2, 7 days, (2) 20 mg/l): 23%
growth (Aureobasidium pullulans; Exp 2, 7 days, (2) 20 mg/l): 37 mm
activity measured (Sclerophoma entoxylina; Exp 1, 5 days, (2) 2.5 mg/l): 7%
growth (Sclerophoma entoxylina; Exp 1, 5 days, (2) 2.5 mg/l): 40 mm
activity measured (Sclerophoma entoxylina; Exp 1, 5 days, (2) 5 mg/l): 16%
growth (Sclerophoma entoxylina; Exp 1, 5 days, (2) 5 mg/l): 36 mm
activity measured (Sclerophoma entoxylina; Exp 1, 5 days, (2) 10 mg/l): 19%
growth (Sclerophoma entoxylina; Exp 1, 5 days, (2) 10 mg/l): 35 mm
activity measured (Sclerophoma entoxylina; Exp 1, 5 days, (2) 20 mg/l): 40%
growth (Sclerophoma entoxylina; Exp 1, 5 days, (2) 20 mg/l): 26 mm
activity measured (Sclerophoma entoxylina; Exp 2, 7 days, (2) 2.5 mg/l): 2%
growth (Sclerophoma entoxylina; Exp 2, 7 days, (2) 2.5 mg/l): 48 mm
activity measured (Sclerophoma entoxylina; Exp 2, 7 days, (2) 5 mg/l): 4%
growth (Sclerophoma entoxylina; Exp 2, 7 days, (2) 5 mg/l): 47 mm
activity measured (Sclerophoma entoxylina; Exp 2, 7 days, (2) 10 mg/l): 16%
growth (Sclerophoma entoxylina; Exp 2, 7 days, (2) 10 mg/l): 41 mm
activity measured (Sclerophoma entoxylina; Exp 2, 7 days, (2) 20 mg/l): 29%
growth (Sclerophoma entoxylina; Exp 2, 7 days, (2) 20 mg/l): 35 mm
activity measured (Trichoderma viride; Exp 1, 5 days, (2) 2.5 mg/l): 0%
growth (Trichoderma viride; Exp 1, 5 days, (2) 2.5 mg/l): 49 mm
activity measured (Trichoderma viride; Exp 1, 5 days, (2) 5 mg/l): 0%
growth (Trichoderma viride; Exp 1, 5 days, (2) 5 mg/l): 49 mm
activity measured (Trichoderma viride; Exp 1, 5 days, (2) 10 mg/l): 0%
growth (Trichoderma viride; Exp 1, 5 days, (2) 10 mg/l): 49 mm
activity measured (Trichoderma viride; Exp 1, 5 days, (2) 20 mg/l): 14%
growth (Trichoderma viride; Exp 1, 5 days, (2) 20 mg/l): 42 mm
activity measured (Trichoderma viride; Exp 2, 7 days, (2) 2.5 mg/l): 0%
growth (Trichoderma viride; Exp 2, 7 days, (2) 2.5 mg/l): 49 mm
activity measured (Trichoderma viride; Exp 2, 7 days, (2) 5 mg/l): 0%
growth (Trichoderma viride; Exp 2, 7 days, (2) 5 mg/l): 49 mm
activity measured (Trichoderma viride; Exp 2, 7 days, (2) 10 mg/l): 8%
growth (Trichoderma viride; Exp 2, 7 days, (2) 10 mg/l): 45 mm
activity measured (Trichoderma viride; Exp 2, 7 days, (2) 20 mg/l): 24%
growth (Trichoderma viride; Exp 2, 7 days, (2) 20 mg/l): 37 mm
activity at 200 ppm (Aureobasidium; (2) 200 ppm): 0%
activity at 400 ppm (Aureobasidium; (2) 400 ppm): 75%
activity at 800 ppm (Aureobasidium; (2) 800 ppm): 95%
% overgrown of the sticks (Aspergillus; (2) 200 ppm): 100%
stick test scores (Aspergillus; (2) 200 ppm): 4 (vigorous to maximum growth (more tha 50% covered))
% overgrown of the sticks (Aspergillus; (2) 400 ppm): 100%
stick test scores (Aspergillus; (2) 400 ppm): 4 (vigorous to maximum growth (more tha 50% covered))
% overgrown of the sticks (Aspergillus; (2) 800 ppm): 100%
stick test scores (Aspergillus; (2) 800 ppm): 4 (vigorous to maximum growth (more tha 50% covered))
activity at 200 ppm (Aspergillus; Aspergillus, (2) 200 ppm, read-out: measured (relative) activity %): 0%
activity at 400 ppm (Aspergillus; Aspergillus, (2) 400 ppm, read-out: measured (relative) activity %): 0%
activity at 800 ppm (Aspergillus; Aspergillus, (2) 800 ppm, read-out: measured (relative) activity %): 0%
% overgrown of the sticks (Sclerophoma; (2) 200 ppm): 100%
stick test scores (Sclerophoma; (2) 200 ppm): 4 (vigorous to maximum growth (more tha 50% covered))
% overgrown of the sticks (Sclerophoma; (2) 400 ppm): 100%
stick test scores (Sclerophoma; (2) 400 ppm): 4 (vigorous to maximum growth (more tha 50% covered))
% overgrown of the sticks (Sclerophoma; (2) 800 ppm): 25%
stick test scores (Sclerophoma; (2) 800 ppm): 2 (slight growth (5 to 25% of the surface covered))
activity at 200 ppm (Sclerophoma; Sclerophoma entoxylina, (2) 200 ppm, read-out: measured (relative) activity %): 0%
activity at 400 ppm (Sclerophoma; Sclerophoma entoxylina, (2) 400 ppm, read-out: measured (relative) activity %): 0%
activity at 800 ppm (Sclerophoma; Sclerophoma entoxylina, (2) 800 ppm, read-out: measured (relative) activity %): 75%
